Data from US20130109721A1, “FAAH Inhibitors” (Ironwood Pharmaceuticals, Inc., priority 2009, published 2013).
pIC50: −log10 of the molar value.

Biological target: T1, FAAH (Homo sapiens, UniProt O00519)
T1 construct: FAAH activity was assayed in the respective homogenates described herein (Rat brain, Mouse brain or Human brain); tissue Analytical Biological Services (ABS), Inc; host or cells: human brain cortex membrane homogenate
T1 sequence (O00519 1-579): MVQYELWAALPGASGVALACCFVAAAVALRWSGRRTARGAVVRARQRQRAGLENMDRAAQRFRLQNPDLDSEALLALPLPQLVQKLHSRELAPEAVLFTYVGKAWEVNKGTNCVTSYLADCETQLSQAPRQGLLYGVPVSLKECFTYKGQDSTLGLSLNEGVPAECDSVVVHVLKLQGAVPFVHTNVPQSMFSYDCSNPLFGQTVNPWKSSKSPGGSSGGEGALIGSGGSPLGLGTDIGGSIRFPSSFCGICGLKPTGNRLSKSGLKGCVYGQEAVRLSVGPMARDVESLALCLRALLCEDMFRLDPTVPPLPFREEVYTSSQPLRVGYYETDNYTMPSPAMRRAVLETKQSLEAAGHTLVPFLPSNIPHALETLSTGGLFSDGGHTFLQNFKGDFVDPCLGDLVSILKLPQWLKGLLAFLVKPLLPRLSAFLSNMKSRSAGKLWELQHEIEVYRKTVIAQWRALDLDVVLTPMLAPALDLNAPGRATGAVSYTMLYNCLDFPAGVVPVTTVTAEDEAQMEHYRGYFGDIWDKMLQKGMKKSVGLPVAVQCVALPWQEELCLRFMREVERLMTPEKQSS
Test: FAAH inhibition, human brain membrane homogenate assay
Assay type: biochemical
Details: average; FAAH extracted from human brain homogenate; read-out: Human brain FAAH Extract IC50
Method: About 10 g of frozen normal human brain cortex tissue was obtained (e.g., from Analytical Biological Services (ABS), Inc. (Wilmington, Del.)). The brain tissue was thawed and transferred to a large ceramic mortar on ice. 50 mL of ice-cold “homogenization buffer” (20 mM HEPES buffer, pH 7.0, with 1 mM MgCl2) was added to the mortar and the tissue was homogenized with a pestle. The homogenate was centrifuged at 36,500 g for 20 minutes at 4° C. The supernatants were discarded and the pellets were re-suspended in homogenization buffer and centrifuged as before. The supernatants were again discarded and the pellets were re-suspended in 30 mL homogenization buffer and incubated in a 37° C. water bath for 20 minutes. The homogenate was then centrifuged as before. The supernatant was discarded and the membrane pellets were re-suspended in 30 mL “resuspension buffer” (50 mM Tris-HCl buffer, pH 7.4, containing 1 mM EDTA and 3 mM MgCl2). A Bradford Protein assay was performed to determine protein concentration. The protein was aliquotted into screw cap Cryo tubes each containing ˜200 μL, flash frozen in liquid nitrogen and stored at −80° C. until used for the assay.
FAAH activity was assayed in the respective homogenates described herein (Rat brain, Mouse brain or Human brain) for certain exemplary substrate compounds using a modification of the method of Omeir et al. (1995 Life Sci 56:1999) and Fowler et al. (1997 J. Pharmacol Exp Ther 283:729). For assay of FAAH activity in rat brain membrane (RBM) homogenates, RBM homogenates (7 μg protein in 20 μL final volume of 10 mM Tris pH 6.5) were mixed with 180 μL of a mixture of the following: 2.0 μM unlabelled anandamide, 0.03 μCi radio labeled anandamide [ethanolamine 1-^3H] (40-60 Cis/mmol, product number ART-626, American Radiolabeled Chemicals, St. Louis, Mo.), 1 mg/mL Bovine Serum Albumin (fatty acid-free BSA, electrophoresis grade, Sigma, St. Louis, Mo.), 10 mM Tris-HCl (pH 6.5), and 1 mM EDTA in the presence and absence of test compounds (vehicle was DMSO at a final concentration of 1%) and incubated for 10 minutes at 37° C. Samples were placed on ice to terminate the reactions.
^3H-ethanolamine product and un-reacted ^3H-anandamide substrate were then separated either: (1) by using chloroform/methanol extraction or (2) by passing the reaction mixture through a glass fiber filter containing activated charcoal. Samples were extracted with chloroform/methanol by adding 0.4 mL of chloroform/methanol (1:1 v/v), vigorously mixing the samples, and separating the aqueous and organic phases by centrifugation. Radioactivity (corresponding to FAAH-catalyzed breakdown of ^3H-anandamide) found in aliquots (0.2 mL) of the aqueous phase was determined by liquid scintillation counting with quench correction. IC50 values were determined as described by Jonsson et al. (2001 Br. J. Pharmacol. 133:1263). Alternatively, reactions were purified using a modification of the solid-phase extraction method described by Wilson et al (2003 Anal. Biochem. 318:270). This method was modified as follows: after reactions were incubated at 37° C. for 10 minutes and chilled on ice, the reaction mixtures were acidified by adding 10 μL of sodium phosphate solution [0.5M (pH 2.0)]. Next, 90 μL aliquots of the acidified reaction mixtures were applied to activated charcoal (that had been previously washed with methanol as described by Wilson et al. (supra)) containing 80 μL of water on top of a glass fiber filter, centrifuged, and the radioactivity in the eluate was counted as described previously by Wilson et al. (supra).
Table 1 provides activity data for certain compounds tested for inhibition of FAAH using the FAAH rat, mouse and human brain homogenate assays. […]

Row | pIC50 | SMILES
1 | 6.10 | Cc1c(C(=O)C(=O)Nc2cccc(Cl)c2)c2ccsc2n1Cc1ccc(Cl)cc1 [Compound I-08, 2-(6-(4-chlorobenzyl)-5-methyl-6H-thieno[2,3-b]pyrrol-4-yl)-N-(3-chlorophenyl)-2-oxoacetamide]
2 | 7.51 | COc1cc(NC(=O)C(=O)c2c(C)n(Cc3ccc(Cl)cc3)c3sccc23)ccn1 [Compound I-09, 2-(6-(4-chlorobenzyl)-5-methyl-6H-thieno[2,3-b]pyrrol-4-yl)-N-(2-methoxypyridin-4-yl)-2-oxoacetamide]
3 | 6.22 | Cc1c(C(=O)C(=O)Nc2cccc(Cl)c2)c2c(n1Cc1ccc(Cl)cc1)CCCCCC2 [Compound I-10, 2-(1-(4-chlorobenzyl)-2-methyl-4,5,6,7,8,9-hexahydro-1H-cycloocta[b]pyrrol-3-yl)-N-(3-chlorophenyl)-2-oxoacetamide]
4 | 7.10 | COc1cc(NC(=O)C(=O)c2c3c(n(Cc4ccc(Cl)cc4)c2C)CCCCCC3)ccn1 [Compound I-11, 2-(1-(4-chlorobenzyl)-2-methyl-4,5,6,7,8,9-hexahydro-1H-cycloocta[b]pyrrol-3-yl)-N-(2-methoxypyridin-4-yl)-2-oxoacetamide]
5 | 6.63 | Cc1c(C(=O)C(=O)Nc2cccc(Cl)c2)c2c(n1Cc1ccc(Cl)cc1)CCCCC2 [Compound I-12, 2-(1-(4-chlorobenzyl)-2-methyl-1,4,5,6,7,8-hexahydrocyclohepta[b]pyrrol-3-yl)-N-(3-chlorophenyl)-2-oxoacetamide]
6 | 8.05 | COc1cc(NC(=O)C(=O)c2c3c(n(Cc4ccc(Cl)cc4)c2C)CCCCC3)ccn1 [Compound I-13, 2-(1-(4-chlorobenzyl)-2-methyl-1,4,5,6,7,8-hexahydrocyclohepta[b]pyrrol-3-yl)-N-(2-methoxypyridin-4-yl)-2-oxoacetamide]
7 | 6.69 | Cc1c(C(=O)C(=O)Nc2cccc(Cl)c2)c2c(n1Cc1ccc(Cl)cc1)CCC(C)(C)C2 [Compound I-14, 2-(1-(4-chlorobenzyl)-2,5,5-trimethyl-4,5,6,7-tetrahydro-1H-indol-3-yl)-N-(3-chlorophenyl)-2-oxoacetamide]
8 | 7.03 | COc1cc(NC(=O)C(=O)c2c3c(n(Cc4ccc(Cl)cc4)c2C)CCC(C)(C)C3)ccn1 [Compound I-15, 2-(1-(4-chlorobenzyl)-2,5,5-trimethyl-4,5,6,7-tetrahydro-1H-indol-3-yl)-N-(2-methoxypyridin-4-yl)-2-oxoacetamide]
9 | 6.92 | Cc1c(C(=O)C(=O)Nc2cccc(Cl)c2)c2c(n1Cc1ccc(Cl)cc1)CCCC2 [Compound I-16, 2-(1-(4-chlorobenzyl)-2-methyl-4,5,6,7-tetrahydro-1H-indol-3-yl)-N-(3-chlorophenyl)-2-oxoacetamide]
10 | 7.68 | COc1cc(NC(=O)C(=O)c2c3c(n(Cc4ccc(Cl)cc4)c2C)CCCC3)ccn1 [Compound I-18, 2-(1-(4-chlorobenzyl)-2-methyl-4,5,6,7-tetrahydro-1H-indol-3-yl)-N-(2-methoxypyridin-4-yl)-2-oxoacetamide]
11 | < 5.30 | COc1cc(NC(=O)C(=O)c2c(-c3ccccc3)c(C)n(Cc3ccc(Cl)cc3)c2C)ccn1 [Compound I-19, 2-(1-(4-chlorobenzyl)-2,5-dimethyl-4-phenyl-1H-pyrrol-3-yl)-N-(2-methoxypyridin-4-yl)-2-oxoacetamide]
12 | < 5.30 | Cc1c(C(=O)C(=O)Nc2cccc(Cl)c2)c(-c2ccccc2)c(C)n1Cc1ccc(Cl)cc1 [Compound I-20, 2-(1-(4-chlorobenzyl)-2,5-dimethyl-4-phenyl-1H-pyrrol-3-yl)-N-(3-chlorophenyl)-2-oxoacetamide]
13 | 6.00 | COc1cc(NC(=O)C(=O)c2cc(C)n(Cc3ccc(Cl)cc3Cl)c2C)ccn1 [Compound I-21, 2-(1-(2,4-dichlorobenzyl)-2,5-dimethyl-1H-pyrrol-3-yl)-N-(2-methoxypyridin-4-yl)-2-oxoacetamide]
14 | 5.39 | COc1ccc(Cn2c(C)cc(C(=O)C(=O)Nc3ccnc(OC)c3)c2C)cc1 [Compound I-22, 2-(1-(4-methoxybenzyl)-2,5-dimethyl-1H-pyrrol-3-yl)-N-(2-methoxypyridin-4-yl)-2-oxoacetamide]
15 | 5.59 | COc1cc(NC(=O)C(=O)c2cc(C)n(Cc3ccc(Cl)cc3)c2-c2ccccc2)ccn1 [Compound I-23, 2-(1-(4-chlorobenzyl)-5-methyl-2-phenyl-1H-pyrrol-3-yl)-N-(2-methoxypyridin-4-yl)-2-oxoacetamide]
16 | < 4.30 | Cc1cc(C(=O)C(=O)Nc2cccc(Cl)c2)c(-c2ccccc2)n1Cc1ccc(Cl)cc1 [Compound I-24, 2-(1-(4-chlorobenzyl)-5-methyl-2-phenyl-1H-pyrrol-3-yl)-N-(3-chlorophenyl)-2-oxoacetamide]
17 | < 4.30 | Cc1c(C(=O)C(=O)Nc2cccc(Cl)c2)cc(-c2ccccc2)n1Cc1ccc(Cl)cc1 [Compound I-25, 2-(1-(4-chlorobenzyl)-2-methyl-5-phenyl-1H-pyrrol-3-yl)-N-(3-chlorophenyl)-2-oxoacetamide]
18 | < 4.30 | Cc1c(C(=O)C(=O)Nc2ccncc2)cc(-c2ccccc2)n1Cc1ccc(Cl)cc1 [Compound I-26, 2-(1-(4-chlorobenzyl)-2-methyl-5-phenyl-1H-pyrrol-3-yl)-2-oxo-N-(pyridin-4-yl)acetamide]
